Data on one compound can be found in patent US20080317857A1, “V-Atpase Inhibitors of Use in the Treatment of Septic Shock” (Brane Discovery S.r.l., priority 2005, published 2008).

One test deals with PMNs. Put plainly: Chemoattractant-induced rapid adhesion of PMNs to fibrinogen (CR3 ligand). The test is classed as cell-based. The settings on record: Homo sapiens. As to the method:
Adhesion was performed on purified integrin ligands and was evaluated as reported in Constantin G. et al., Immunity, 16, 759-769, 2000. Briefly, primary naïve lymphocytes, polymorphonuclear neutrophils (PMNs) or monocytes were isolated form healthy donors. In other experiments, murine autoreactive T cells were obtained from SJL mice immunized with PLP139-151 as described (Piccio L. et al., J. Immunol. 168, 1940-1949, 2002). Cells were resuspended at 4×10^6/ml in PBS, CaCl2, MgCl2 1 mM, 10% FCS, pH 7.2. Adhesion assays were performed on eighteen well glass slides coated overnight at 4° C. with ligands for CR3 (fibrinogen) or LFA-1 (ICAM-1). 20 μl of cell suspension were added to the wells and stimulated at 37° C. with 5 μl of agonists prior to washing, fixation and computer-assisted enumeration of bound cells.
Integrin activation was measured as induction of rapid adhesion triggered by the classical chemoattractant N-formyl-L-methionyl-L-leucyl-phenylalanine (fMLP) (100 nM) or by the CC chemokine MIP3β (CCL19, 1 μM). PMNs and monocytes were triggered to adhere to fibrinogen (CR3 ligand); naive human lymphocytes or murine encephalitogenic T cells were triggered to adhere to ICAM-1 (LFA-1 ligand). Triggered adhesion was evaluated after 2 min of stimulation under static conditions. The cells were pretreated at 37° C. for 30-60 min with the indicated concentrations of the test compound. Results are expressed as percentage of inhibition over control (=100%) and are the mean of three experiments in the case of human leukocytes. Results are expressed as mean counts and are the mean counts±S.D of three experiments and are the mean of three experiments in the case of murine encephalitogenic lymphocytes.
Integrin activation was measured as induction of rapid adhesion triggered by the “classical” chemoattractant fMLP (100 nM) or by the CC chemokine MIP3β(CCL19, 1 μM). PMNs were triggered to adhere to fibrinogen (CR3 ligand); lymphocytes were triggered to adhere to ICAM-1 (LFA-1 ligand).

The test system of another test is Monocytes. Put plainly: Chemotaxis assay, monocytes (transwell). The settings on record: Homo sapiens, Monocyte. The test is classed as cell-based. As for the experimental part:
PMNs and monocytes migration was assessed using 1 or 3-μm pore size transwells (Bio-Coat Becton-Dickinson), while lymphocytes by using 5-μm pore size transwells.
Cells were in RPMI1640, containing 10% heat-inactivated Fetal Calf Serum (FCS) and 20 mM HEPES, pH 7.3, at 2×10^6/ml. 100 μl of cell suspension were added to the top well, and 600 μl of medium, containing chemoaftractants and test compound, were added to the bottom well. Migration was evaluated after 2 h for PMNs and monocytes and after 4 h for lymphocytes. fMLP 10 nM (PMNs and monocytes) and MIP-3β 100 nM (lymphocytes) were utilized as chemoattractants. After fixation with 1.5% glutaraldehyde, migrated cells were counted by fluorescence-activated cell sorting using polystyrene beads (Polyscience) as an internal standard (Campbell J. J. et al. J. Cell. Biol. 134, 255-266, 1996; Laudanna C. et al. J. Biol. Chem. 273, 46, 30306-30315, 1998).
Results are expressed as percentage of inhibition over control (=100%), and are the mean of three experiments.

Test [1] has as its system murine encephalitogenic T lymphocytes in inflamed brain venules. The test can be described thus: Intravital microscopy: lymphocyte recruitment in inflamed brain microcirculation. The test is classed as in vivo, mice (SJL). The settings on record: cells treated with 50 μM for 1 h. As to the method: Murine encephalitogenic T lymphocytes were labeled with either green CMFDA (5-chloromethylfluorescein diacetate; Molecular Probes) or orange CMTMR (5-(and-6)-(((4-chloromethyl)benzoyl)amino)tetramethylrhodamine) (Molecular Probes). SJL young females (Harlan-Nossan, Udine, Italy) were housed and used according to current European Community rules. In order to inflame brain endothelium, mice were injected intraperitoneally with 12 μg lipopolysaccharide (LPS) (Escherichia coli 026:B6; Sigma) 5 to 6 hours before the intravital experiment was started. […] Fluorescence-labeled cells (2×10^6)/condition were slowly injected into the carotid artery through a digital pump. Images were visualized by using a silicon-intensified target videocamera (VE-1000 SIT; Dage MTI, Michigan City, Ind.) and a Sony SSM-125CE monitor and were recorded using a digital videocassette recorder (NV-DV10000; Panasonic).
Video analysis was performed by playback of digital videotapes. Vessel diameter (D), hemodynamic parameters, and the velocities of rolling were determined by using a personal computer-based system. The velocities of 20 or more consecutive freely flowing cells per venule were calculated.
From the velocity of the fastest cell in each venule (Vfast), we calculated the mean blood flow velocities (Vm): […]. […]

What is called inhibition is the change of the read-out against control, counted positive when it falls. For the compound `COC(=O)c1[nH]c2cc(OC)c(OC)cc2c1-c1ccc(OC)cc1` [Example 1], the inhibition at 2.5 µM came to 9.4% in the test with PMNs ([cpd] 2.5 μM, read-out: Inhibition of Adhesion (%) PMNs (fMLP)) and 10.5% in the test on Monocytes ([cpd] 2.5 μM, read-out: Inhibition of Chemotaxis (%) Monocytes (fMLP)). In addition, the inhibition at 5 µM is 56.1% in the test with PMNs ([cpd] 5 μM, read-out: Inhibition of Adhesion (%) PMNs (fMLP) (converted)) and 15.5% in the test on Monocytes ([cpd] 5 μM, read-out: Inhibition of Chemotaxis (%) Monocytes (fMLP) (converted)). The inhibition at 10 µM in the test with PMNs ([cpd] 10 μM, read-out: Inhibition of Adhesion (%) PMNs (fMLP) (converted)) was 66.7%; in the test on Monocytes ([cpd] 10 μM, read-out: Inhibition of Chemotaxis (%) Monocytes (fMLP) (converted)) it was 18.3%. The inhibition at 25 µM in the test on PMNs ([cpd] 25 μM, read-out: Inhibition of Adhesion (%) PMNs (fMLP) (converted)) is 72.9%; in the test on Monocytes ([cpd] 25 μM, read-out: Inhibition of Chemotaxis (%) Monocytes (fMLP) (converted)) it was 47.4%. In addition, the inhibition at 50 µM with PMNs ([cpd] 50 μM, read-out: Inhibition of Adhesion (%) PMNs (fMLP) (converted)) is 79%; in the test with Monocytes ([cpd] 50 μM, read-out: Inhibition of Chemotaxis (%) Monocytes (fMLP) (converted)), 46.3%. In addition, the inhibition at 100 µM with PMNs ([cpd] 100 μM, read-out: Inhibition of Adhesion (%) PMNs (fMLP) (converted)) was 94.2%; in the test with Monocytes ([cpd] 100 μM, read-out: Inhibition of Chemotaxis (%) Monocytes (fMLP) (converted)), 75.5%. In addition, the autoreactive lymphocyte rolling entry in test [1] is on record as “no effect”. In test [1], the sticking/firm arrest result is given as “highly blocked”.
